Literature values, collected in PubChem BioAssay AID1259409 (Chemical Carcinogenesis Research Information System (CCRIS), 2018).

System: rodent chemically induced tumor inhibition, incidence and multiplicity
Test: CCRIS tumor inhibitor studies
Settings: Dose [Inhibitor]: 0, Route [Inhibitor]: ORAL, Species: RAT, Strain/Sex: F344/MALE
Source text: The CCRIS database contains chemical records with carcinogenicity, mutagenicity, tumor promotion, and tumor inhibition test results. It was developed by the National Cancer Institute (NCI). Data are derived from studies cited in primary journals, current awareness tools, NCI reports, and other sources. Test results have been reviewed by experts in carcinogenesis and mutagenesis.
CCRIS provides historical information from the years 1985 - 2011. It is no longer updated.
This is an archive assay for CCRIS tumor inhibitor studies.

NCCS(=O)(=O)O
tumour outcome (control, treated, inhibition, significance) (Carcinogen: AZOXYMETHANE, 25843-45-2, 600 PPM IN DIET BEGINNING 2 WK PRIOR TO CARCINOGEN TREATMENT AND CONTINUING FOR DURATION OF STUDY (STUDY DURATION: 56, Target Tissue: Type of Lesion: COLON: INVASIVE ADENOCARCINOMA, Dose [Carcinogen]: 15 MG/KG 1/WK FOR 2 WK, Promoter: NONE USED): 34%, 16%, 53%, not significant
tumour outcome (control, treated, inhibition, significance) (Carcinogen: AZOXYMETHANE, 25843-45-2, 600 PPM IN DIET BEGINNING 2 WK PRIOR TO CARCINOGEN TREATMENT AND CONTINUING FOR DURATION OF STUDY (STUDY DURATION: 56, Target Tissue: Type of Lesion: COLON: NONINVASIVE ADENOCARCINOMA, Dose [Carcinogen]: 15 MG/KG 1/WK FOR 2 WK, Promoter: NONE USED): 53%, 61%, -15%, not significant
tumour outcome (control, treated, inhibition, significance) (Carcinogen: AZOXYMETHANE, 25843-45-2, 1200 PPM IN DIET BEGINNING 2 WK PRIOR TO CARCINOGEN TREATMENT AND CONTINUING FOR DURATION OF STUDY (STUDY DURATION: 5, Target Tissue: Type of Lesion: COLON: INVASIVE ADENOCARCINOMA, Dose [Carcinogen]: 15 MG/KG 1/WK FOR 2 WK, Promoter: NONE USED): 34%, 17%, 50%, not significant
tumour outcome (control, treated, inhibition, significance) (Carcinogen: AZOXYMETHANE, 25843-45-2, 1200 PPM IN DIET BEGINNING 2 WK PRIOR TO CARCINOGEN TREATMENT AND CONTINUING FOR DURATION OF STUDY (STUDY DURATION: 5, Target Tissue: Type of Lesion: COLON: NONINVASIVE ADENOCARCINOMA, Dose [Carcinogen]: 15 MG/KG 1/WK FOR 2 WK, Promoter: NONE USED): 53%, 47%, 11%, not significant
tumour outcome (control, treated, inhibition, significance) (Carcinogen: DIETHYLNITROSAMINE, 55-18-5, 2000 PPM IN DIET FOR 3 WK DURING INITIATION PHASE (STUDY DURATION: 24 WK), Target Tissue: Type of Lesion: LIVER: HEPATOCELLULAR ADENOMA, Dose [Carcinogen]: 100 MG/KG BW 1/WK FOR 3 WK, Promoter: PHENOBARBITAL, 50-06-6): 19/20 (95%), 12/19 (63%), 34%, p<0.02
tumour outcome (control, treated, inhibition, significance) (Carcinogen: DIETHYLNITROSAMINE, 55-18-5, 2000 PPM IN DIET FOR 3 WK DURING INITIATION PHASE (STUDY DURATION: 24 WK), Target Tissue: Type of Lesion: LIVER: HEPATOCELLULAR CARCINOMA, Dose [Carcinogen]: 100 MG/KG BW 1/WK FOR 3 WK, Promoter: PHENOBARBITAL, 50-06-6): 14/20 (70%), 13/19 (68%), 3%, not significant
tumour outcome (control, treated, inhibition, significance) (Carcinogen: DIETHYLNITROSAMINE, 55-18-5, 2000 PPM IN DIET FOR 20 WK BEGINNING POST CARCINOGEN TREATMENT (STUDY DURATION: 24 WK), Target Tissue: Type of Lesion: LIVER: HEPATOCELLULAR ADENOMA, Dose [Carcinogen]: 100 MG/KG BW 1/WK FOR 3 WK, Promoter: NONE USED): 3/24 (13%), 4/18 (22%), -69%, not significant
tumour outcome (control, treated, inhibition, significance) (Carcinogen: DIETHYLNITROSAMINE, 55-18-5, 2000 PPM IN DIET FOR 20 WK BEGINNING POST CARCINOGEN TREATMENT (STUDY DURATION: 24 WK), Target Tissue: Type of Lesion: LIVER: HEPATOCELLULAR ADENOMA, Dose [Carcinogen]: 100 MG/KG BW 1/WK FOR 3 WK, Promoter: PHENOBARBITAL, 50-06-6): 19/20 (95%), 7/21 (33%), 65%, p<0.0001
tumour outcome (control, treated, inhibition, significance) (Carcinogen: DIETHYLNITROSAMINE, 55-18-5, 2000 PPM IN DIET FOR 20 WK BEGINNING POST CARCINOGEN TREATMENT (STUDY DURATION: 24 WK), Target Tissue: Type of Lesion: LIVER: HEPATOCELLULAR CARCINOMA, Dose [Carcinogen]: 100 MG/KG BW 1/WK FOR 3 WK, Promoter: NONE USED): 7/24 (29%), 4/18 (22%), 24%, not significant
tumour outcome (control, treated, inhibition, significance) (Carcinogen: DIETHYLNITROSAMINE, 55-18-5, 2000 PPM IN DIET FOR 20 WK BEGINNING POST CARCINOGEN TREATMENT (STUDY DURATION: 24 WK), Target Tissue: Type of Lesion: LIVER: HEPATOCELLULAR CARCINOMA, Dose [Carcinogen]: 100 MG/KG BW 1/WK FOR 3 WK, Promoter: PHENOBARBITAL, 50-06-6): 14/20 (70%), 13/21 (62%), 11%, not significant
